pKi: −log10 of the molar value.
Legend:
[1] = target: T1, PPARγ (Homo sapiens, UniProt P37231); assay: cos-7 cells transfected with hPPARγ, PPRE×[…] TK-luciferase transactivation assay at […]; type: cell-based
T1 construct: gene PPARG; hPPARγ plasmid
T1 sequence (P37231 1-505): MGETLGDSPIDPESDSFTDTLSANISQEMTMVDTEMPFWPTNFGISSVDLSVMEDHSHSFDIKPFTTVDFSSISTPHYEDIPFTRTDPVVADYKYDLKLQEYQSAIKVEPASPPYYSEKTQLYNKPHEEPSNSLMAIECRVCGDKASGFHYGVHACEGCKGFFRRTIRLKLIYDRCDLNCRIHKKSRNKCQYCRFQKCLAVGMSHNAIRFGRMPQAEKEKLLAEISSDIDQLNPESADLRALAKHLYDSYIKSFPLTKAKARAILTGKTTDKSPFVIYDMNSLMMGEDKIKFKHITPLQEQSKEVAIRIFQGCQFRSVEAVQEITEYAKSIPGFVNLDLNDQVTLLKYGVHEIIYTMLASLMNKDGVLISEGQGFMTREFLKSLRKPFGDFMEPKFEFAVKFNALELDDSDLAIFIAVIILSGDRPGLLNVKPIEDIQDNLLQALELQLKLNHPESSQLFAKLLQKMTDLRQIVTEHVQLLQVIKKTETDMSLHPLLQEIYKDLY

[2] = target: T2, PPARγ (Homo sapiens, UniProt P37231); assay: LanthaScreen TR-FRET competitive binding assay (IC50 […]); supported by cell-based PPRE-luciferase assay (weak/partial agonism)
T2 construct: gene PPARG; PPARγ LBD
T2 sequence (P37231 231-505 limits assumed): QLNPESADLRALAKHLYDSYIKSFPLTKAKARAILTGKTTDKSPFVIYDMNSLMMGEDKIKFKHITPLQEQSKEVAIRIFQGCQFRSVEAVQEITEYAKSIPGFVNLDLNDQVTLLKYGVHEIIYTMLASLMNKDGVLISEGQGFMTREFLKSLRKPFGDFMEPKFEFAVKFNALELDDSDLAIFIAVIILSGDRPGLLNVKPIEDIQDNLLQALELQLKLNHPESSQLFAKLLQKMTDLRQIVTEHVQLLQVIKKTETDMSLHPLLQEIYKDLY

Row | Structure (SMILES) | cos-7 cells transfected with hPPARγ, PPRE×3 TK-luciferase transactivation assay [1] | pKi [2]
1 | Clc1ccc(C(Cn2ccnc2)OCc2ccc(Sc3ccccc3)cc2)c(Cl)c1 (centres unmarked) [FN, fenticonazole] | podophyllotoxone exhibited weak PPARγ agonistic activity, similar to fenticonazole (FN), a PPARγ partial agonist | 
2 | COc1cc([C@@H]2c3cc4c(cc3C(=O)[C@H]3COC(=O)[C@H]23)OCO4)cc(OC)c1OC [podophyllotoxone] |  | 5.01

Reference: article PMC11509912, “Identification of Novel PPARγ Partial Agonists Based on Virtual Screening Strategy: In Silico and In Vitro Experimental Validation” (Molecules, 2024)
